# In patent publication US10947213B1 (Merck Patent GmbH, priority 2015, dated 2021):
# Structures can show the parent of a compound that is named as a salt.
# Molecular target: T1, TLR7/NFKb HEK cells (Homo sapiens, UniProt Q9NYK1)
# T1 construct: expressed in transfected cells; host or cells: HEK cells (TLR7/NFKb reporter line)
# T1 sequence (Q9NYK1 27-1049): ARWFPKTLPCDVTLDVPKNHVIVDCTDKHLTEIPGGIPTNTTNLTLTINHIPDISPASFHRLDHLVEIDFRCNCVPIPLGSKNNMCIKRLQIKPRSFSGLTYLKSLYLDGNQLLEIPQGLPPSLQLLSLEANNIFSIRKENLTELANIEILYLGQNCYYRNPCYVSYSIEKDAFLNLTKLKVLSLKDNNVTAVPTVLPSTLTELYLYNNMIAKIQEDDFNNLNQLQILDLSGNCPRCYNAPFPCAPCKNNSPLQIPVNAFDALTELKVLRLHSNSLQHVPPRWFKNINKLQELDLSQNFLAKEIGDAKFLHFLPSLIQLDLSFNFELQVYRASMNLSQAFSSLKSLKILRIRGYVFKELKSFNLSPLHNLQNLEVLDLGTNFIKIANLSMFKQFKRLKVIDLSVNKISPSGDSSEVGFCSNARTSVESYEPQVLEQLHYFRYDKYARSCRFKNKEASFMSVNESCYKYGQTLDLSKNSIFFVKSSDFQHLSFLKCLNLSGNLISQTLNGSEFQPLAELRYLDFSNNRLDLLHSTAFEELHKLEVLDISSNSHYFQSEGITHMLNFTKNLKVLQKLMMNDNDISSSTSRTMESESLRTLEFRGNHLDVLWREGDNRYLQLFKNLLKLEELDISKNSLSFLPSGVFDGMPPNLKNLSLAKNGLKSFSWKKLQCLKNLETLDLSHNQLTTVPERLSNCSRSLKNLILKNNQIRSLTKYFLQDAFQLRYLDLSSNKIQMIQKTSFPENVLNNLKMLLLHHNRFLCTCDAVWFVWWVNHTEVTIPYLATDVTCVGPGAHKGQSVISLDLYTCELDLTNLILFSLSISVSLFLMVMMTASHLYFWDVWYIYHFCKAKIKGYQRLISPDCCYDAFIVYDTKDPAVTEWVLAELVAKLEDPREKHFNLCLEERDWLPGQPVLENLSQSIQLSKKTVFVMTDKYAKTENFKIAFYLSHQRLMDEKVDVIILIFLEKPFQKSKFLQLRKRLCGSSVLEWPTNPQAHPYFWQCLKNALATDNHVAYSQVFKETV
# Assay: HEK Cell Assay (TLR7/NFKb reporter, Steady-Glo luciferase readout)
# Type: cell-based
# Settings: 30 min compound preincubation, then R*48 agonist for 5 hours, read-out: Potency
# In short: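 Steady-Glo luminescence after 5 h stimulation with R*48 agonist, following 30 min compound preincubation. Assay run in HEK cells carrying a TLR7/NFKb luciferase reporter, plated at 5000 cells/well and grown 24 h at 37° C (10% CO2) before treatment.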
row,Compound,IC50
1,"CC(C)(C(=O)N[C@@H]1C[C@H](C(F)(F)F)CN(c2ccc(C#N)c3ncccc23)C1)N1CCCCC1 [Compound 576, N-[(3R,5S)-1-(8-Cyano-quinolin-5-yl)-5-trifluoromethyl-piperidin-3-yl]-2-piperidin-1-yl-isobutyramide]",< 1000 nM
2,"CC1(C)CCN(CC(=O)N[C@@H]2C[C@H](C(F)(F)F)CN(c3ccc(C#N)c4ncccc34)C2)C1 [Compound 577, N-[(3R,5S)-1-(8-Cyano-quinolin-5-yl)-5-trifluoromethyl-piperidin-3-yl]-2-(3,3-dimethyl-pyrrolidin-1-yl)-acetamide]",< 1000 nM
3,"N#Cc1ccc(N2C[C@H](NC(=O)C3CCN(C4CC4)CC3)C[C@H](C(F)(F)F)C2)c2cccnc12 [Compound 578, 1-Cyclopropyl-piperidine-4-carboxylic acid [(3R,5S)-1-(8-cyano-quinolin-5-yl)-5-trifluoromethyl-piperidin-3-yl]-amide]",< 1000 nM
4,"N#Cc1ccc(N2C[C@H](NC(=O)NCC3CC(F)(F)C3)C[C@H](C(F)(F)F)C2)c2cccnc12 [Compound 580, 1-[(3R,5S)-1-(8-Cyano-quinolin-5-yl)-5-trifluoromethyl-piperidin-3-yl]-3-(3,3-difluoro-cyclobutylmethyl)-urea]",1000 to 10000 nM
5,"N#Cc1ccc(N2C[C@H](NC(=O)N3C[C@@H](F)[C@@H](F)C3)C[C@H](C(F)(F)F)C2)c2cccnc12 [Compound 581, (3R,4S)-3,4-Difluoro-pyrrolidine-1-carboxylic Acid [(3R,5S)-1-(8-cyano-quinolin-5-yl)-5-trifluoromethyl-piperidin-3-yl]-amide]",1000 to 10000 nM
6,"N#Cc1ccc(N2C[C@H](NC(=O)CC3CCC(F)(F)CC3)C[C@H](C(F)(F)F)C2)c2cccnc12 [Compound 584, N-[(3R,5S)-1-(8-Cyano-quinolin-5-yl)-5-trifluoromethyl-piperidin-3-yl]-2-(4,4-difluoro-cyclohexyl)-acetamide]",< 1000 nM
7,"CC(C)N1CCC(CC(=O)N[C@@H]2C[C@H](C(F)(F)F)CN(c3ccc(C#N)c4ncccc34)C2)CC1 [Compound 585, N-[(3R,5S)-1-(8-Cyano-quinolin-5-yl)-5-trifluoromethyl-piperidin-3-yl]-2-(1-isopropyl-piperidin-4-yl)-acetamide]",< 1000 nM

# More lines, now with the values ahead:
row,IC50,Compound
1,1000 to 10000 nM,"C[C@H]1C[C@@H](NCC(=O)O)CN(c2ccc(C(F)(F)F)c3ncccc23)C1 [Compound 571, [(3R,5S)-5-Methyl-1-(8-trifluoromethyl-quinolin-5-yl)-piperidin-3-ylamino]-acetic acid]"
2,< 1000 nM,C[C@H]1C[C@@H](NC(=O)C(C)(C)N2CCCCC2)CN(c2ccc(C(F)(F)F)c3ncccc23)C1 [Compound 572]
3,< 1000 nM,"C[C@H]1C[C@@H](NC(=O)CN2CCC(C)(C)C2)CN(c2ccc(C(F)(F)F)c3ncccc23)C1 [Compound 573, 2-(3,3-Dimethyl-pyrrolidin-1-yl)-N-[(3R,5S)-5-methyl-1-(8-trifluoromethyl-quinolin-5-yl)-piperidin-3-yl]-acetamide]"
4,< 1000 nM,"C[C@H]1C[C@@H](NC(=O)C2CCN(C3CC3)CC2)CN(c2ccc(C(F)(F)F)c3ncccc23)C1 [Compound 574, 1-Cyclopropyl-piperidine-4-carboxylic acid [(3R,5S)-5-methyl-1-(8-trifluoromethyl-quinolin-5-yl)-piperidin-3-yl]-amide]"
5,1000 to 10000 nM,"CCN(CC)C(=O)CCC(=O)N[C@@H]1C[C@H](C)CN(c2ccc(C(F)(F)F)c3ncccc23)C1 [Compound 575, N,N-Diethyl-N′-[(3R,5S)-5-methyl-1-(8-trifluoromethyl-quinolin-5-yl)-piperidin-3-yl]-succinamide]"
6,1000 to 10000 nM,"CCN(CC)C(=O)CCC(=O)N[C@@H]1C[C@H](C(F)(F)F)CN(c2ccc(C#N)c3ncccc23)C1 [Compound 579, N-[(3R,5S)-1-(8-Cyano-quinolin-5-yl)-5-trifluoromethyl-piperidin-3-yl]-N′,N′-diethyl-succinamide]"
7,1000 to 10000 nM,"C[C@H]1C[C@@H](NC(=O)NCC2CC(F)(F)C2)CN(c2ccc(C(F)(F)F)c3ncccc23)C1 [Compound 582, 1-(3,3-Difluoro-cyclobutylmethyl)-3-[(3R,5S)-5-methyl-1-(8-trifluoromethyl-quinolin-5-yl)-piperidin-3-yl]-urea]"
8,1000 to 10000 nM,"C[C@H]1C[C@@H](NC(=O)N2C[C@@H](F)[C@@H](F)C2)CN(c2ccc(C(F)(F)F)c3ncccc23)C1 [Compound 583, (3R,4S)-3,4-Difluoro-pyrrolidine-1-carboxylic Acid [(3R,5S)-5-methyl-1-(8-trifluoromethyl-quinolin-5-yl)-piperidin-3-yl]-amide]"
9,< 1000 nM,"Cc1ccc(N2C[C@H](N)C[C@H](C(F)(F)F)C2)c2cccnc12 [Compound 586, (3R,5S)-1-(8-Methyl-quinolin-5-yl)-5-trifluoromethyl-piperidin-3-ylamine hydrochloride]"
